From patent US20250000877A1, “COMPOSITION CONTAINING TAURODEOXYCHOLIC ACID OR PHARMACEUTICALLY ACCEPTABLE SALT THEREOF AS ACTIVE INGREDIENT FOR PREVENTING OR TREATING VIRAL INFECTIOUS DISEASES” (SHAPERON INC., priority 2021, published 2025)
Read-outs that look alike come from different tables or passages of the source.

Columns and labels:
IL-1β = format: in vivo, mice
[1] = test system: influenza virus CA04 (human H1N1); assay: Lung lesions / histopathological scoring in influenza virus-infected animal model; format: in vivo, mice; conditions: for pathological scoring of lung lesions: score 0-4 per Table 2
Description: Specifically, female BLAB/C mice aged 7 weeks were purchased and allowed to acclimate for one week before the experiments commenced. The experimental animals were housed under conditions of 22±2° C. temperature, 55±5% relative humidity, and a 12-hour light-dark cycle. Water was provided ad libitum, and sterilized feed was freely accessible.
Next, as shown in the schematic diagram of FIG. 1, influenza virus CA04 (human H1N1) was intranasally inoculated at a concentration of 2LD50 (30 μl/mouse), and the drug was administered by dividing into four groups as shown in [Table 1] below. The positive control group was administered dexamethasone, an anti-inflammatory drug, as a drug, and the experimental group was administered HY209 as a low dose (1 mpk) or a high dose (4 mpk) as a drug. The drug was administered intraperitoneally at a dose of 100 μl/mouse on the third day after virus infection. In addition, lung tissues were separated and stored after autopsy of each group on the 7th day (7 dpi), 10th day (10 dpi), and 11th day (11 dpi) of virus infection.
Specifically, each of the test groups of Example 1 was autopsied on the 7th day (7 dpi), 10th day (10 dpi), and 11th day (11 dpi) of viral infection, and then the lungs were separated. The separated lung lesions were visually confirmed (FIGS. 3a to 3c), and lung lesions were scored according to the pathological scoring criteria of Table 2 below, and then graphed (FIGS. 4a and 4b).

[2] = 7 dpi, 1 mpk intraperitoneally from DPI 3, virus infection group G1 2.8±0.84
[3] = 11 dpi, 1 mpk intraperitoneally from DPI 3, virus infection group G1 4±0

With `C[C@H](CCC(=O)NCCS(=O)(=O)O)[C@H]1CC[C@H]2[C@@H]3CC[C@@H]4C[C@H](O)CC[C@]4(C)[C@H]3C[C@H](O)[C@]12C` [HY209, Sodium taurodeoxycholate] the IL-1β levels (IL-1β; […], serum samples, HY209 1 mpk (G3) vs G1) was “significant decrease”, the “production of inflammatory cytokine IL-1β in the lungs” value (IL-1β; mouse, in vivo) was “reduced” and the “IL-1β levels in lung tissue samples” value (IL-1β; mouse, in vivo, 1 mg/kg) was “significant decrease”. For the same compound, the “IL-1β levels in lung tissue samples” value (IL-1β; mouse, in vivo, 4 mg/kg) was “significant decrease”, the “pathological scoring of lung lesions” value [1, 2] was 2.6±0.55 and the “reduction in pathological scores compared to the virus infection group (G1)” value (“reduction in pathological scores” below) ([1]; 7 dpi, 4 mpk (G4), P=0.046) was “statistically significant reduction”. For the same compound, the “pathological scoring of lung lesions” value ([1]; 7 dpi, 4 mpk intraperitoneally from DPI 3, virus infection group G1 2.8±0.84) was 1.8±0.45, the “reduction in pathological scores” value ([1]; 11 dpi, 1 mpk (G2 P=0.002, G3 P=0.013)) was “statistically significant reduction” and the “pathological scoring of lung lesions” value [1, 3] was 2.8±0.84. The “reduction in pathological scores” value ([1]; 11 dpi, 4 mpk (G4), P=0.0005) was “statistically significant reduction”, the “pathological scoring of lung lesions” value ([1]; 11 dpi, 4 mpk intraperitoneally from DPI 3, virus infection group G1 4±0) was 2.29±0.76 and the “production of inflammatory cells in the lungs” value ([1]; low (1 mpk) or high (4 mpk) dose groups compared to the virus infection group, summary statement) was “reduced”.
With `C[C@@H]1C[C@H]2[C@@H]3CCC4=CC(=O)C=C[C@]4(C)[C@@]3(F)[C@@H](O)C[C@]2(C)[C@@]1(O)C(=O)CO` [dexamethasone, reference compound] the “pathological scoring of lung lesions” value [1, 2] was 1.8±0.45 and the “pathological scoring of lung lesions” value [1, 3] was 2.5±0.71.
